These results are taken from BindingDB's records for doi:10.1021/jm000940u (Aventis Pharma, 2000).

In test [1] the target is Prothrombin (Homo sapiens, UniProt P00734). Put plainly: Enzyme Assay and Determination of the Inhibition Constants. The conditions noted are these: pH 7.5; 22 °C.
For test [2], the target named is T1, Serine protease 1 (Bos taurus, UniProt P00760).
T1 sequence (P00760 whole entry): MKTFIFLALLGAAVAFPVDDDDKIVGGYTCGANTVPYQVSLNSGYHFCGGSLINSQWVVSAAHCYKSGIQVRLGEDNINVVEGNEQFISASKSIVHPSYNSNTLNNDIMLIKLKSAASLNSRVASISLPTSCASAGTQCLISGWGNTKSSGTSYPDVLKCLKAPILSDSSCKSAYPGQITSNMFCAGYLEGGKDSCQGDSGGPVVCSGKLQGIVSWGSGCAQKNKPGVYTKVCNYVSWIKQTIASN
The description is as above. The conditions noted are these: pH 7.5; 22 °C.

On to `N=C(N)c1ccc(O)c(CN2CC[C@H](NS(=O)(=O)c3cc4ncccc4s3)C2=O)c1`, for which the Ki in test [1] is > 4 µM.

Consider `O=C1[C@@H](NS(=O)(=O)c2cc3ncccc3s2)CCN1Cc1cc2ccncc2[nH]1` [N-[(3S)-1-(4,7-diazabicyclo[4.3.0]nona-2,4,8,10-tetraen-8-ylmethyl)-2-oxo-pyrrolidin-3-yl]-7-thia-2-azabicyclo[4.3.0]nona-2,4,8,10-tetraene-8-sulfonamide], for which the inhibitory constant (Ki) in test [1] is > 4 µM; in test [2], > 2.9 µM.

Turning to `Nc1nccc2ccc(CN3CC[C@H](NS(=O)(=O)c4cc5ncccc5s4)C3=O)cc12` [N-[(3S)-1-[(1-aminoisoquinolin-7-yl)methyl]-2-oxopyrrolidin-3-yl]thieno[3,2-b]pyridine-2-sulfonamide], the Ki in test [1] is > 4 µM; in test [2] it was > 2.9 µM.

The term Ki denotes the dissociation constant of the complex between target and ligand, obtained from inhibition or displacement. Read a high Ki as lower affinity.
